Results on 24 molecules are retold here after patent US9624241B2 (Incyte Corporation, priority 2013, dated 2017).

The target in one experiment is BRD4-BD2 (Homo sapiens (Human), UniProt O60885). In words: BRD4 AlphaScreen Assay (Example A2), BRD4-BD2. In kind it is binding. On the procedure: (§1) BRD4-BD1 and BRD4-BD2 assays were conducted in white 384-well polystyrene plate in a final volume of 40 μL for BD1 and 60 μL for BD2. Inhibitors were first serially diluted in DMSO and added to the plate wells before the addition of other reaction components. […] The assays were carried out at room temperature in the assay buffer (50 mM Tris-HCl, pH 7.5, 0.01% Tween-20, 0.01% BSA, 5 mM DTT), containing 50 nM Biotin-labeled tetra-acetylated histone H4 peptide (H4Ac4) and BRD4-BD1 or BRD4-BD2 protein at concentration less than 1 nM. […] After plate sealing, the plate was incubated in the dark at room temperature for 75 min. before reading on a PHERAstar FS plate reader (BMG Labtech). IC50 determination was performed by fitting the curve of percent control activity versus the log of the inhibitor concentration using the GraphPad Prism 5.0 software.
(In general: In Alpha technology, singlet oxygen from a donor bead excites a nearby acceptor bead.)

A further experiment deals with BRD4-BD1 (Homo sapiens (Human), UniProt O60885). In words: BRD4 AlphaScreen Assay (Example A2), BRD4-BD1. In kind it is binding. How it is done:
as §1

Setting [1] is: Assay A2, AlphaScreen, BRD4-BD2, read-out: BRD4 BD-2 enzyme IC50.
[2] abbreviates: Assay A2, AlphaScreen, BRD4-BD1, read-out: BRD4 BD-1 enzyme IC50.

SMILES strings stand for the structures. Where two headings read alike, the source gives them in different places.

The IC50 is the point on the concentration scale where inhibition reaches its midpoint. For the molecule `CNC(=O)C1Oc2c(-c3c(C)noc3C)ccc3[nH]c(=O)n(c23)C1c1ccccn1` (stereo not drawn) [Example 76, 7-(3,5-dimethylisoxazol-4-yl)-N-methyl-2-oxo-4-pyridin-2-yl-1,2,4,5-tetrahydroimidazo[1,5,4-de][1,4]benzoxazine-5-carboxamide 2,2,2-trifluoroacetate], the IC50 at BRD4-BD2 (setting [1]) and on BRD4-BD1 (setting [2]) was 100 to 1000 nM in each case.

On to `Cc1noc(C)c1-c1ccc2[nH]c(=O)n3c2c1OC(C(N)=O)C3c1ccccn1` (stereo not drawn) [Example 77, 7-(3,5-dimethylisoxazol-4-yl)-2-oxo-4-pyridin-2-yl-1,2,4,5-tetrahydroimidazo[1,5,4-de][1,4]benzoxazine-5-carboxamide 2,2,2-trifluoroacetate], for which the IC50 on BRD4-BD2 (setting [1]) and at BRD4-BD1 (setting [2]) was 100 to 1000 nM in each case.

Regarding `Cc1noc(C)c1-c1ccc2[nH]c(=O)n3c2c1OCC3c1cncc(F)c1` (stereo not drawn) [Example 78, 7-(3,5-dimethylisoxazol-4-yl)-4-(5-fluoropyridin-3-yl)-4,5-dihydroimidazo[1,5,4-de][1,4]benzoxazin-2(1H)-one], the IC50 on BRD4-BD2 (setting [1]) and at BRD4-BD1 (setting [2]) was under 100 nM throughout.

As for `Cc1noc(C)c1-c1ccc2[nH]c(=O)n3c2c1OCC3C1CCCCN1S(C)(=O)=O` (stereo not drawn) [Example 79, 7-(3,5-dimethylisoxazol-4-yl)-4-[1-(methylsulfonyl)piperidin-2-yl]-4,5-dihydroimidazo[1,5,4-de][1,4]benzoxazin-2(1H)-one], the IC50 against BRD4-BD2 and on BRD4-BD1 was 1000 to 10000 nM in each case.

As to `Cc1noc(C)c1-c1ccc2[nH]c(=O)n3c2c1OCC3C1CCCCN1C(=O)NC(C)C` (stereo not drawn) [Example 80, 2-[7-(3,5-dimethylisoxazol-4-yl)-2-oxo-1,2,4,5-tetrahydroimidazo[1,5,4-de][1,4]benzoxazin-4-yl]-N-isopropylpiperidine-1-carboxamide], the half-maximal inhibitory concentration (IC50) at BRD4-BD2 (setting [1]) and at BRD4-BD1 (setting [2]) was 1000 to 10000 nM throughout.

As for `Cc1noc(C)c1-c1cc(-c2cnn(C)c2)c2[nH]c(=O)n3c2c1OC[C@@H]3c1ccccn1` [Example 81, (4S)-7-(3,5-dimethylisoxazol-4-yl)-9-(1-methyl-1H-pyrazol-4-yl)-4-pyridin-2-yl-4,5-dihydroimidazo[1,5,4-de][1,4]benzoxazin-2(1H)-one 2,2,2-trifluoroacetate], the figures for the IC50 on BRD4-BD2 (setting [1]) and on BRD4-BD1 (setting [2]) were under 100 nM and 100 to 1000 nM, respectively.

Take `Cc1noc(C)c1-c1cc(-c2ccc(C(=O)N(C)C)nc2)c2[nH]c(=O)n3c2c1OC[C@@H]3c1ccccn1` [Example 82, 5-[(4S)-7-(3,5-dimethylisoxazol-4-yl)-2-oxo-4-pyridin-2-yl-1,2,4,5-tetrahydroimidazo[1,5,4-de][1,4]benzoxazin-9-yl]-N,N-dimethylpyridine-2-carboxamide 2,2,2-bis(trifluoroacetate)]: the figures for the IC50 on BRD4-BD2 (setting [1]) and on BRD4-BD1 (setting [2]) were under 100 nM and 100 to 1000 nM, respectively.

On to `Cc1noc(C)c1-c1cc(C2=CCN(C(=O)OC(C)(C)C)CC2)c2[nH]c(=O)n3c2c1OC[C@@H]3c1ccccn1` [Example 83, tert-butyl 4-[(4S)-7-(3,5-dimethylisoxazol-4-yl)-2-oxo-4-pyridin-2-yl-1,2,4,5-tetrahydroimidazo[1,5,4-de][1,4]benzoxazin-9-yl]-3,6-dihydropyridine-1(2H)-carboxylate 2,2,2-trifluoroacetate], for which the IC50 at BRD4-BD2 (setting [1]) and at BRD4-BD1 (setting [2]) was under 100 nM throughout.

`Cc1noc(C)c1-c1cc(-c2cncnc2)c2[nH]c(=O)n3c2c1OC[C@@H]3c1ccccn1` [Example 84, (4S)-7-(3,5-dimethylisoxazol-4-yl)-4-pyridin-2-yl-9-pyrimidin-5-yl-4,5-dihydroimidazo[1,5,4-de][1,4]benzoxazin-2(1H)-one 2,2,2-trifluoroacetate]: the half-inhibitory concentration (IC50) on BRD4-BD2 (setting [1]) was under 100 nM; on BRD4-BD1 (setting [2]) it was 100 to 1000 nM.

For the molecule `Cc1noc(C)c1-c1cc(-c2ccnn2C)c2[nH]c(=O)n3c2c1OC[C@@H]3c1ccccn1` [Example 85, (4S)-7-(3,5-dimethylisoxazol-4-yl)-9-(1-methyl-1H-pyrazol-5-yl)-4-pyridin-2-yl-4,5-dihydroimidazo[1,5,4-de][1,4]benzoxazin-2(1H)-one 2,2,2-trifluoroacetate], the results for the IC50 at BRD4-BD2 (setting [1]) and at BRD4-BD1 (setting [2]) were 100 to 1000 nM and 1000 to 10000 nM, respectively.

On to `CCOC(=O)/C=C/c1cc(-c2c(C)noc2C)c2c3c1[nH]c(=O)n3[C@@H](c1ccccn1)CO2` [Example 86, ethyl (2E)-3-[(4S)-7-(3,5-dimethylisoxazol-4-yl)-2-oxo-4-pyridin-2-yl-1,2,4,5-tetrahydroimidazo[1,5,4-de][1,4]benzoxazin-9-yl]acrylate 2,2,2-trifluoroacetate], for which the concentration for half-maximal inhibition (IC50) on BRD4-BD2 (setting [1]) was under 100 nM; at BRD4-BD1 (setting [2]), 100 to 1000 nM.

Regarding `Cc1noc(C)c1-c1cc(C2=CCNCC2)c2[nH]c(=O)n3c2c1OC[C@@H]3c1ccccn1` [Example 87, (4S)-7-(3,5-dimethylisoxazol-4-yl)-4-pyridin-2-yl-9-(1,2,3,6-tetrahydropyridin-4-yl)-4,5-dihydroimidazo[1,5,4-de][1,4]benzoxazin-2(1H)-one bis(2,2,2-trifluoroacetate)], the figures for the IC50 on BRD4-BD2 (read-out: BRD4 BD-2 enzyme IC50) and at BRD4-BD1 were under 100 nM and 100 to 1000 nM, respectively.

Take `C=Cc1nc2ccc(-c3c(C)noc3C)c3c2n1[C@@H](c1ccccn1)CO3` [Example 88, (4S)-7-(3,5-Dimethylisoxazol-4-yl)-4-pyridin-2-yl-2-vinyl-4,5-dihydroimidazo[1,5,4-de][1,4]benzoxazine]: the IC50 on BRD4-BD2 (setting [1]) and on BRD4-BD1 (setting [2]) was under 100 nM throughout.

For the molecule `Cc1noc(C)c1-c1ccc2nc([C@@H](O)CO)n3c2c1OC[C@@H]3c1ccccn1` [Example 89, (1R)-1-[(4S)-7-(3,5-Dimethylisoxazol-4-yl)-4-pyridin-2-yl-4,5-dihydroimidazo[1,5,4-de][1,4]benzoxazin-2-yl]ethane-1,2-diol], the concentration for half-maximal inhibition (IC50) at BRD4-BD2 (setting [1]) and at BRD4-BD1 (setting [2]) was under 100 nM each time.

Turning to `Cc1noc(C)c1-c1ccc2nc(C(C)O)n3c2c1OC[C@@H]3c1ccccn1` (stereo partly drawn) [Example 90, 1-[(4S)-7-(3,5-Dimethylisoxazol-4-yl)-4-pyridin-2-yl-4,5-dihydroimidazo[1,5,4-de][1,4]benzoxazin-2-yl]ethanol], the IC50 at BRD4-BD2 (setting [1]) and at BRD4-BD1 (setting [2]) was under 100 nM each time.

On to `Cc1noc(C)c1-c1ccc2nc(C(=O)N(C)C)n3c2c1OC[C@@H]3c1ccccn1` [Example 91, (4S)-7-(3,5-Dimethylisoxazol-4-yl)-N,N-dimethyl-4-pyridin-2-yl-4,5-dihydroimidazo[1,5,4-de][1,4]benzoxazine-2-carboxamide], for which the IC50 at BRD4-BD2 (setting [1]) and on BRD4-BD1 (setting [2]) was under 100 nM each time.

Regarding `Cc1noc(C)c1-c1ccc2ncn3c2c1OC[C@@H]3c1ccccn1` [Example 92, (4S)-7-(3,5-Dimethylisoxazol-4-yl)-4-pyridin-2-yl-4,5-dihydroimidazo[1,5,4-de][1,4]benzoxazine], the concentration for half-maximal inhibition (IC50) on BRD4-BD2 (setting [1]) and on BRD4-BD1 (setting [2]) was under 100 nM each time.

As to `Cc1noc(C)c1-c1ccc2nc(C(=O)OC(C)(C)C)n3c2c1OC[C@@H]3c1ccccn1` [Example 93, tert-Butyl (4S)-7-(3,5-dimethylisoxazol-4-yl)-4-pyridin-2-yl-4,5-dihydroimidazo[1,5,4-de][1,4]benzoxazine-2-carboxylate], the IC50 on BRD4-BD2 (setting [1]) and on BRD4-BD1 (setting [2]) was under 100 nM throughout.

Consider `Cc1noc(C)c1-c1ccc2nc(C(=O)N3CCOCC3)n3c2c1OC[C@@H]3c1ccccn1` [Example 94, (4S)-7-(3,5-Dimethylisoxazol-4-yl)-2-(morpholin-4-ylcarbonyl)-4-pyridin-2-yl-4,5-dihydroimidazo[1,5,4-de][1,4]benzoxazine], for which the IC50 at BRD4-BD2 (setting [1]) and at BRD4-BD1 (setting [2]) was under 100 nM each time.

In the case of `CNC(=O)c1nc2ccc(-c3c(C)noc3C)c3c2n1[C@@H](c1ccccn1)CO3` [Example 95, (4S)-7-(3,5-Dimethylisoxazol-4-yl)-N-methyl-4-pyridin-2-yl-4,5-dihydroimidazo[1,5,4-de][1,4]benzoxazine-2-carboxamide], the IC50 at BRD4-BD2 (setting [1]) and on BRD4-BD1 (setting [2]) was under 100 nM each time.

`Cc1noc(C)c1-c1ccc2nc(C(N)=O)n3c2c1OC[C@@H]3c1ccccn1` [Example 96, (4S)-7-(3,5-Dimethylisoxazol-4-yl)-4-pyridin-2-yl-4,5-dihydroimidazo[1,5,4-de][1,4]benzoxazine-2-carboxamide]: the IC50 on BRD4-BD2 (setting [1]) and at BRD4-BD1 (setting [2]) was under 100 nM throughout.

For `Cc1noc(C)c1-c1ccc2nc(C3=CCN(C(=O)OC(C)(C)C)CC3)n3c2c1OC[C@@H]3c1ccccn1` [Example 97, tert-Butyl 4-[(4S)-7-(3,5-dimethylisoxazol-4-yl)-4-pyridin-2-yl-4,5-dihydroimidazo[1,5,4-de][1,4]benzoxazin-2-yl]-3,6-dihydropyridine-1(2H)-carboxylate], the half-maximal inhibitory concentration (IC50) at BRD4-BD2 (setting [1]) and on BRD4-BD1 (setting [2]) was under 100 nM throughout.

With `Cc1noc(C)c1-c1ccc2nc(C3=CCN(C(=O)OC(C)(C)C)C3)n3c2c1OC[C@@H]3c1ccccn1` [Example 98, tert-Butyl 3-[(4S)-7-(3,5-dimethylisoxazol-4-yl)-4-pyridin-2-yl-4,5-dihydroimidazo[1,5,4-de][1,4]benzoxazin-2-yl]-2,5-dihydro-1H-pyrrole-1-carboxylate], the IC50 at BRD4-BD2 (setting [1]) and at BRD4-BD1 (setting [2]) was under 100 nM in each case.

Take `Cc1noc(C)c1-c1ccc2nc(C3=CCCN(C(=O)OC(C)(C)C)C3)n3c2c1OC[C@@H]3c1ccccn1` [Example 99, tert-Butyl 5-[(4S)-7-(3,5-dimethylisoxazol-4-yl)-4-pyridin-2-yl-4,5-dihydroimidazo[1,5,4-de][1,4]benzoxazin-2-yl]-3,6-dihydropyridine-1(2H)-carboxylate]: the 50% inhibitory concentration (IC50) at BRD4-BD2 (setting [1]) and at BRD4-BD1 (setting [2]) was under 100 nM each time.
